Consider seven substances from patent publication US8178104B2, “Methods and compositions for targeting gC1qR/p32” (Sanford-Burnham Medical Research Institute, priority 2006, dated 2012).

Bridge positions count the residues as written; N and C are the ends. Ends that are not written are not given here. * marks the point of attachment. FITC = O=C1OC2(c3ccc(O)cc3Oc3cc(O)ccc32)c2ccc(NC(=S)*)cc21

One test concerns MDA-MB-435 cells. The test is described as follows: FACS analysis of FITC-peptide binding to MDA-MB-435 cells. To be noted: 10 μM, 1 hour at 4° C.; compared with Lyp-1. The format is cell-based. Here is the method:
MDA-MB-435 cells were transiently transfected with gC1qR/p32-specific or control siRNAs. […] The amount of fluorescence in living cells was analyzed by FACS. Cells incubated in the absence of peptide served as FITC negative control. Compared to control siRNA transfected cells, down-regulation of gC1qR/p32 expression (in the presence of gC1qR/p32 siRNA) caused a shift in the peak of Lyp-1 fluorescence but not control peptide fluorescence.
Cultured cells were detached with cell enzyme-free dissociation buffer (Gibco/Invitrogen) and collected in PBS containing 1% BSA (PBSB). Single cells suspensions from tumors were obtained as indicated above. For FACS staining, 2.5×10^5 cells were resuspended in 100 μl of PBSB and incubated with polyclonal anti-full-length gC1qR/p32 or rabbit IgG (20 μg/ml) in PBSB for 30 min at 4° C. The cells were washed in PBSB and stained with goat anti rabbit Alexa 488 (2.5 μg/ml) for 30 min at 4° C. For FACS analysis of bound FITC-peptides, cultured cells were detached as above and incubated with 10 μM of FITC-peptides in 10% FCS/DMEM for 1 hour at 4° C. After washes with PBSB, the cells were resuspended in PBS containing 2 μg/ml of propidium iodide (PI, Molecular Probes/Invitrogen) to distinguish between live and dead cells, and 10,000 cells per sample were analyzed using a BD Biosciences FACSort.
A general note: A flow cytometer gives signals particle by particle.

A further test concerns the target T1, gC1qR/p32 (Homo sapiens, UniProt Q07021).
T1 construct: the specific band represents the mature form of a protein known as gC1qR/p32; endogenous in cells; host or cells: MDA-MB-435 cultured cells; MDA-MB-435 tumor xenografts
T1 sequence (Q07021 74-282): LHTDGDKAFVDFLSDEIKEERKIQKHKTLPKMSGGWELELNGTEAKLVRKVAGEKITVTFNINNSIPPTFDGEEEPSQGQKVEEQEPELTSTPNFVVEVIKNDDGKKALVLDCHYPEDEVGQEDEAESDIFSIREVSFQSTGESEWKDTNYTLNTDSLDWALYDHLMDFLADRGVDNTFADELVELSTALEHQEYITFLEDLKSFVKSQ
The test is described as follows: Pull-down assay with biotinylated peptides from tumor cell extracts. Type of test: binding. To be noted: extracts of cultured tumor cells (MDA-MB-435); anti-gC1qR/p32 immunoblot. Here is the method: Pull down assays were performed with biotinylated Lyp-1 peptide (SEQ ID NO:1, CGNKRTRGC) from protein extracts derived from MDA-MB-435 cultured cells or MDA-MB-435 tumor xenografts. A tumor homing peptide, CREKA (SEQ ID NO:3), and a peptide CRV which resembles Lyp-1 in its amino acid composition and cyclic structure (SEQ ID NO:4, CRVRTRSGC), were used as negative controls. The Lyp-1 bound proteins were visualized using silver staining and immunoblotting. […] The arrow indicates a specific 33 kD band, which was identified as gC1qR/p32 by mass spectrometry. […] The antibody recognizes a band of 33 kD in the total proteins lysate and in the Lyp-1 pull down. Anti gC1qR/p32 reactive bands are not detected in the pull downs from both control peptides. […] The monoclonal antibody against gC1qR/p32 recognized a 75 kD and a 33 kD band only in the Lyp-1 peptide pull down.
To identify the receptor for the LyP-1 peptide, biotin-labeled LyP-1 and control peptides were incubated with extracts of MDA-MB-435 cells, a cell line that binds and internalizes LyP-1 (Laakkonen et al., 2004). LyP-1 bound a specific band in the 30 kDa range that was not seen in the controls (FIG. 3A, left panel), which were the pentapeptide CREKA (SEQ ID NO: 3) (Simberg et al., 2007) and the nonapeptide CRVRTRSGC (SEQ ID NO: 4), which resembles LyP-1 in its amino acid composition and cyclic structure. […] LyP-1 affinity isolation also yielded gC1qR/p32 from cultured BT549 breast carcinoma cells and from extracts of MDA-MB-435 xenograft tumors.
Streptavidin agarose beads (Sigma-Aldrich) were resuspended in 2 volumes of phosphate buffer saline (PBS) and conjugated to 3 μg/10 μl beads of biotynilated peptides for 2 h on ice. After incubation, beads were washed three times with PBS/50 mM n-octyl-β-D glucopyranoside (Calbiochem; San Diego, Calif.) to remove free peptides. […] Bands that appeared in the LyP-1 but not control peptide pull down were cut out, digested with trypsin, and the resulting peptides were analyzed by matrix-assisted laser desorption ionization-time of flight (MALDI-TOF) mass spectrometry. […]
On the technique in general: A western blot detects proteins with antibodies after separation by electrophoresis.

A further test has as its system tumors. To be noted: cited from earlier work.
The next test concerns HL-60 leukemia cells. To be noted: cited from earlier work.
For another test, the system named is C8161 melanoma cells. To be noted: cited from earlier work.
Another test concerns MDA-MB-435. To be noted: cited from earlier work.
A further test deals with BT549. To be noted: cited from earlier work.
The target of test [1] is T2, purified gC1qR/p32 protein (Homo sapiens, UniProt Q07021).
T2 sequence (Q07021 74-282): T1 sequence (Q07021 74-282)
Briefly: In vitro phage binding to purified gC1qR/p32 coated on microtiter wells. To be noted: 5 μg/ml coated protein, 16 h at 37° C., plaque assay. How it is done: Purified gC1qR/p32 or BSA, as a control, were coated onto microtiter wells (5 μg/ml) and targeted for binding with 10^8 pfu of insertless phage, Lyp-1 phage, or control phage carrying another tumor homing peptide (CREKA, SEQ ID NO:3). After 16 hours of incubation at 37° C., bound phages were eluted and quantified by plaque assay. The results are show in FIG. 2(a). Results are expressed as fold of Lyp-1 and CREKA (SEQ ID NO:3) phages recovered over insertless phage and are representative of five independent experiments.
Microtiter wells (Costar, Corning, N.Y.) were coated overnight at 4° C. with 5 μg/ml of either purified gC1qR/p32 or BSA (Sigma-Aldrich) in 100 μl/well of carbonate buffer (15 mM sodium carbonate, 35 mM sodium bicarbonate). Wells were washed three times with TBS and blocked with Pierce Superblock buffer according to the manufactures instructions. 10^8 pfu of LyP-1 and control phages were added to the wells in 100 μl/well of TBS/0.05% tween-20 and incubated for 16 h at 37° C. After 6 washes in TBS/0.05% tween-20, bound phages were eluted with 200 μl of Tris-HCl 1M pH 7.5/0.5% SDS for 30 min and subsequently quantified by plaque assay. […] Cells were washed 5 times with PBS/1% BSA and bound phages were quantified by plaque assay.

The subject of another test is mitochondrial membranes. To be noted: 10 μM; cited from earlier work.
The subject of a further test is MDA-MB-435 tumors. The test is described as follows: Tumor localization of intravenously injected FITC-LyP-1 peptide. To be noted: circulation 1 hour; p32 immunohistochemical staining. Type of test: in vivo, mice. The text has this: Tumor localization of gC1qR/p32 and Lyp-1 peptide were visualized. gC1qR/p32, lymphatic or blood vessels, podoplanin and Meca32/CD31 were stained with fluorescently-labeled antibodies in MDA-MB-435 tumor xenografts. Polyclonal anti-gC1qR/p32 antibody recognizes cell clusters that lack blood vessels but contain lymphatics, or cells lining vessel-like structures positive for Podoplanin but not CD31 or Meca32. Fluorescein-conjugated Lyp-1 peptide was i.v. injected into mice bearing MDA-MB-435 tumors and allowed to circulate for 1 hour before removal of the tumor for gC1qR/p32 immunohistochemical analysis. Lyp-1 peptide localizes in gC1qR/p32-positive patches within the tumor.

“ARALPSQRSR [control peptide with same overall charge as LyP-1]”: the “binding of FITC conjugated peptide to cells” value with MDA-MB-435 cells is recorded as “less binding ability”.
For the substance “CGNKRTRGC (disulfide 1-9 (inferred)) [LyP-1, tumor homing cyclic nonapeptide]”, the “gC1qR/p32 bound/pulled down by biotinylated peptide” value (“gC1qR/p32 bound/pulled down” for short) with gC1qR/p32 is “specifically bound”. Further, the “TUNEL-positive lesions in tumors” value in the test on tumors (in vivo peptide treatment) is listed as “induced TUNEL-positive lesions”. Besides, the tumor growth entry in the test with tumors (systemic administration) is “inhibits tumor growth”. In addition, the LyP-1 binding result in the test on HL-60 leukemia cells is recorded as “not to significantly bind”; with C8161 melanoma cells it was “not to significantly bind”; with MDA-MB-435, “strong”; with BT549, “strong”.
With CNRRTKAGC (displayed on phage) [LyP-2], the “phage binding to purified gC1qR/p32 relative to insertless control phage” value in [1] is on record as “did not significantly bind”.
Regarding “CREKA [tumor homing pentapeptide used as negative control, as peptide and on phage]”, the “gC1qR/p32 bound/pulled down” value with gC1qR/p32 was “not detected”. Moreover, in [1], the “phage binding to purified gC1qR/p32 relative to insertless control phage” value is listed as “essentially no interaction”.
Regarding “CRVRTRSGC (disulfide 1-9 (inferred)) [control nonapeptide resembling Lyp-1 in amino acid composition and cyclic structure]”, in the test with gC1qR/p32, the “gC1qR/p32 bound/pulled down” value was “not detected”.
Take D(KLAKLAK)2: in the test with mitochondrial membranes, the mitochondrial swelling entry was “marked mitochondrial swelling”.
“FITC-LyP-1: fluorescein-conjugated LyP-1 peptide ({FITC}-CGNKRTRGC; disulfide 1-9 (inferred))”: in the test on MDA-MB-435 tumors, the “tumor localization of intravenously injected peptide” value is given as “accumulated in tumor areas with high expression levels of gC1qR/p32”.
